Source: patent US11357779B2 (G1 Therapeutics, Inc., priority 2018, dated 2022)

Test: Adverse events by CTCAE grade and frequency, all dosing cohorts
Type: in vivo, human
From the text: Patients were enrolled into 1 of 2 parallel, independently operating, dose-escalation dosing cohorts with Form B of Compound II administered continuously either once daily (QD) or twice daily (BID) with food with fixed-dose fulvestrant (intramuscularly every 14 days for the first three injections and then every 28 days). Pre- or perimenopausal patients also received goserelin for the duration of study treatment. A […] agonist was started at least 28 days before the first dose of Form B, and those patients who were taking another LHRH agonist were switched to goserelin on Day 1. Patients were split into […] cohorts providing once a day (QD) dosing of 200 mg, 300 mg, 400 mg, 500 mg, or 650 mg of Form B, or twice a day (BID) dosing of 100 mg, 150 mg, or 200 mg of Form B. The second dose in BID cohorts was not administered in the evening until at least 12 hours after the initial morning dose of Form B. The dosing cohorts for Form B of Compound II are provided in Table 1.

[1] = Dose 100 mg BID, adverse event frequency
[2] = Dose 150 mg BID, adverse event frequency
[3] = Dose 200 mg BID, adverse event frequency
[4] = Dose 200 mg QD, adverse event frequency
[5] = Dose 300 mg QD, adverse event frequency
[6] = Dose 400 mg QD, adverse event frequency
[7] = Dose 500 mg QD, adverse event frequency
[8] = Dose 650 mg QD, adverse event frequency
[9] = Total, all dosing cohorts, All Grades, frequency
[10] = Total, all dosing cohorts, CTCAE Grade 1, frequency
[11] = Total, all dosing cohorts, CTCAE Grade 2, frequency
[12] = Total, all dosing cohorts, CTCAE Grade 3, frequency
[13] = Total, all dosing cohorts, CTCAE Grade 4, frequency

SMILES: CC(C)N1CCN(c2ccc(Nc3ncc4cc5n(c4n3)C3(CCCCC3)CNC5=O)nc2)CC1 [Form B]
- ALT increase [1]: 0
- AST increased [1]: 0
- Anemia [1]: 2
- BUN increased [1]: 0
- Diarrhea [1]: 1
- Fatigue [1]: 1
- Febrile neutropenia [1]: 0
- GGT increased [1]: 0
- Hematuria [1]: 1
- Leukopenia [1]: 3
- Lymphopenia [1]: 0
- Metrorrhagia [1]: 0
- Nausea [1]: 2
- Neutropenia [1]: 4
- SCr increased [1]: 1
- Stomatitis [1]: 0
- Thrombocytopenia [1]: 1
- Vomiting [1]: 0
- ALT increase [2]: 0
- AST increased [2]: 0
- Anemia [2]: 1
- BUN increased [2]: 0
- Diarrhea [2]: 2
- Fatigue [2]: 1
- Febrile neutropenia [2]: 1
- GGT increased [2]: 0
- Hematuria [2]: 1
- Leukopenia [2]: 3
- Lymphopenia [2]: 0
- Metrorrhagia [2]: 1
- Nausea [2]: 1
- Neutropenia [2]: 3
- SCr increased [2]: 0
- Stomatitis [2]: 1
- Thrombocytopenia [2]: 1
- Vomiting [2]: 1
- ALT increase [3]: 0
- AST increased [3]: 0
- Anemia [3]: 0
- BUN increased [3]: 0
- Diarrhea [3]: 1
- Fatigue [3]: 1
- Febrile neutropenia [3]: 0
- GGT increased [3]: 0
- Hematuria [3]: 0
- Leukopenia [3]: 1
- Lymphopenia [3]: 0
- Metrorrhagia [3]: 0
- Nausea [3]: 1
- Neutropenia [3]: 2
- SCr increased [3]: 0
- Stomatitis [3]: 0
- Thrombocytopenia [3]: 0
- Vomiting [3]: 0
- ALT increase [4]: 0
- AST increased [4]: 0
- Anemia [4]: 3
- BUN increased [4]: 1
- Diarrhea [4]: 1
- Fatigue [4]: 0
- Febrile neutropenia [4]: 0
- GGT increased [4]: 0
- Hematuria [4]: 1
- Leukopenia [4]: 4
- Lymphopenia [4]: 1
- Metrorrhagia [4]: 0
- Nausea [4]: 0
- Neutropenia [4]: 4
- SCr increased [4]: 0
- Stomatitis [4]: 0
- Thrombocytopenia [4]: 0
- Vomiting [4]: 0
- ALT increase [5]: 0
- AST increased [5]: 0
- Anemia [5]: 1
- BUN increased [5]: 1
- Diarrhea [5]: 2
- Fatigue [5]: 1
- Febrile neutropenia [5]: 0
- GGT increased [5]: 0
- Hematuria [5]: 1
- Leukopenia [5]: 2
- Lymphopenia [5]: 0
- Metrorrhagia [5]: 0
- Nausea [5]: 2
- Neutropenia [5]: 3
- SCr increased [5]: 0
- Stomatitis [5]: 0
- Thrombocytopenia [5]: 1
- Vomiting [5]: 2
- ALT increase [6]: 1
- AST increased [6]: 1
- Anemia [6]: 2
- BUN increased [6]: 0
- Diarrhea [6]: 2
- Fatigue [6]: 2
- Febrile neutropenia [6]: 0
- GGT increased [6]: 1
- Hematuria [6]: 1
- Leukopenia [6]: 0
- Lymphopenia [6]: 0
- Metrorrhagia [6]: 0
- Nausea [6]: 3
- Neutropenia [6]: 3
- SCr increased [6]: 0
- Stomatitis [6]: 0
- Thrombocytopenia [6]: 1
- Vomiting [6]: 3
- ALT increase [7]: 1
- AST increased [7]: 0
- Anemia [7]: 2
- BUN increased [7]: 0
- Diarrhea [7]: 1
- Fatigue [7]: 1
- Febrile neutropenia [7]: 0
- GGT increased [7]: 0
- Hematuria [7]: 0
- Leukopenia [7]: 1
- Lymphopenia [7]: 0
- Metrorrhagia [7]: 0
- Nausea [7]: 3
- Neutropenia [7]: 3
- SCr increased [7]: 1
- Stomatitis [7]: 0
- Thrombocytopenia [7]: 3
- Vomiting [7]: 1
- ALT increase [8]: 0
- AST increased [8]: 0
- Anemia [8]: 0
- BUN increased [8]: 0
- Diarrhea [8]: 4
- Fatigue [8]: 1
- Febrile neutropenia [8]: 0
- GGT increased [8]: 0
- Hematuria [8]: 0
- Leukopenia [8]: 2
- Lymphopenia [8]: 0
- Metrorrhagia [8]: 0
- Nausea [8]: 3
- Neutropenia [8]: 2
- SCr increased [8]: 0
- Stomatitis [8]: 0
- Thrombocytopenia [8]: 0
- Vomiting [8]: 5
- ALT increase [9]: 2
- AST increased [9]: 1
- Anemia [9]: 11
- BUN increased [9]: 2
- Diarrhea [9]: 14
- Fatigue [9]: 8
- Febrile neutropenia [9]: 1
- GGT increased [9]: 1
- Hematuria [9]: 5
- Leukopenia [9]: 16
- Lymphopenia [9]: 1
- Metrorrhagia [9]: 1
- Nausea [9]: 15
- Neutropenia [9]: 24
- SCr increased [9]: 2
- Stomatitis [9]: 1
- Thrombocytopenia [9]: 7
- Vomiting [9]: 12
- ALT increase [10]: 1
- AST increased [10]: 0
- Anemia [10]: 3
- BUN increased [10]: 2
- Diarrhea [10]: 6
- Fatigue [10]: 5
- Febrile neutropenia [10]: 0
- GGT increased [10]: 0
- Hematuria [10]: 5
- Leukopenia [10]: 4
- Lymphopenia [10]: 0
- Metrorrhagia [10]: 0
- Nausea [10]: 8
- Neutropenia [10]: 6
- SCr increased [10]: 2
- Stomatitis [10]: 0
- Thrombocytopenia [10]: 5
- Vomiting [10]: 5
- ALT increase [11]: 1
- AST increased [11]: 1
- Anemia [11]: 2
- BUN increased [11]: 0
- Diarrhea [11]: 8
- Fatigue [11]: 3
- Febrile neutropenia [11]: 0
- GGT increased [11]: 1
- Hematuria [11]: 0
- Leukopenia [11]: 9
- Lymphopenia [11]: 1
- Metrorrhagia [11]: 1
- Nausea [11]: 7
- Neutropenia [11]: 7
- SCr increased [11]: 0
- Stomatitis [11]: 1
- Thrombocytopenia [11]: 2
- Vomiting [11]: 3
- ALT increase [12]: 0
- AST increased [12]: 0
- Anemia [12]: 1
- BUN increased [12]: 0
- Diarrhea [12]: 0
- Fatigue [12]: 0
- Febrile neutropenia [12]: 1
- GGT increased [12]: 0
- Hematuria [12]: 0
- Leukopenia [12]: 3
- Lymphopenia [12]: 0
- Metrorrhagia [12]: 0
- Nausea [12]: 0
- Neutropenia [12]: 9
- SCr increased [12]: 0
- Stomatitis [12]: 0
- Thrombocytopenia [12]: 0
- Vomiting [12]: 0
- ALT increase [13]: 0
- AST increased [13]: 0
- Anemia [13]: 0
- BUN increased [13]: 0
- Diarrhea [13]: 0
- Fatigue [13]: 0
- Febrile neutropenia [13]: 0
- GGT increased [13]: 0
- Hematuria [13]: 0
- Leukopenia [13]: 0
- Lymphopenia [13]: 0
- Metrorrhagia [13]: 0
- Nausea [13]: 0
- Neutropenia [13]: 2
- SCr increased [13]: 0
- Stomatitis [13]: 0
- Thrombocytopenia [13]: 0
- Vomiting [13]: 0
